{"source": "PubChem BioAssay AID2060883", "about": "(Molecular Pharmacology Branch, DTP, NCI, 2025);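 note: viability read after seven days of compound exposure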", "tested_on": "843782-103-R-J1-PDC complex spheroid viability", "assay": "Anticancer human tumor 843782-103-R-J1-PDC patient-derived lung adenocarcinoma cell line growth inhibition [RAS]", "settings": "for viability, T/C: stronger effect = lower value", "procedure,_shortened": "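Multi-cell-type spheroids: tumor cells plus HUVEC endothelial cells and mesenchymal stem cells. RAS-pathway inhibitors were combined with targeted agents, each dosed in half-log steps down from clinical Cmax, or from 10 microM when Cmax was unknown.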", "key": {"[1]": {"settings": "curve of first compound, second compound 0.0316 µM"}, "[2]": {"settings": "curve of first compound, second compound 0.1 µM"}, "[3]": {"settings": "curve of first compound, second compound 0.316 µM"}, "[4]": {"settings": "curve of first compound, second compound 1 µM"}, "[5]": {"settings": "second compound 0.0316 µM, first compound 0.0316 µM"}, "[6]": {"settings": "second compound 0.0316 µM, first compound 0.1 µM"}, "[7]": {"settings": "second compound 0.0316 µM, first compound 0.316 µM"}, "[8]": {"settings": "second compound 0.0316 µM, first compound 1 µM"}, "[9]": {"settings": "second compound 0.0316 µM, first compound 3.16 µM"}, "[10]": {"settings": "second compound 0.0316 µM, first compound 10 µM"}, "[11]": {"settings": "second compound 0.1 µM, first compound 0.0316 µM"}, "[12]": {"settings": "second compound 0.1 µM, first compound 0.1 µM"}, "[13]": {"settings": "second compound 0.1 µM, first compound 0.316 µM"}, "[14]": {"settings": "second compound 0.1 µM, first compound 1 µM"}, "[15]": {"settings": "second compound 0.1 µM, first compound 3.16 µM"}, "[16]": {"settings": "second compound 0.1 µM, first compound 10 µM"}, "[17]": {"settings": "second compound 0.316 µM, first compound 0.0316 µM"}, "[18]": {"settings": "second compound 0.316 µM, first compound 0.1 µM"}, "[19]": {"settings": "second compound 0.316 µM, first compound 0.316 µM"}, "[20]": {"settings": "second compound 0.316 µM, first compound 1 µM"}, "[21]": {"settings": "second compound 0.316 µM, first compound 3.16 µM"}, "[22]": {"settings": "second compound 0.316 µM, first compound 10 µM"}, "[23]": {"settings": "second compound 1 µM, first compound 0.0316 µM"}, "[24]": {"settings": "second compound 1 µM, first compound 0.1 µM"}, "[25]": {"settings": "second compound 1 µM, first compound 0.316 µM"}, "[26]": {"settings": "second compound 1 µM, first compound 1 µM"}, "[27]": {"settings": "second compound 1 µM, first compound 3.16 µM"}, "[28]": {"settings": "second compound 1 µM, first compound 10 µM"}}, "data": [{"smiles": "CC(=O)OC12COC1CC(O)C1(C)C(=O)C(O)C3=C(C)C(OC(=O)C(O)C(NC(=O)OC(C)(C)C)c4ccccc4)CC(O)(C(OC(=O)c4ccccc4)C21)C3(C)C", "note": "(stereo not given) + C=CC(=O)N1CCN(c2nc(OCC3CCCN3C)nc3c(F)c(-c4nc(N)cc(C)c4C(F)(F)F)c(Cl)cc23)C(C)C1", "values": [{"measurement": "IC50", "setting": "curve of first compound, second compound 0.00316 µM", "result": "< 31.6", "unit": "nM"}, {"measurement": "IC50", "setting": "curve of first compound, second compound 0.01 µM", "result": "< 31.6", "unit": "nM"}, {"measurement": "IC50", "setting": "[1]", "result": "< 31.6", "unit": "nM"}, {"measurement": "IC50", "setting": "[2]", "result": "< 31.6", "unit": "nM"}, {"measurement": "IC50", "setting": "[3]", "result": "< 31.6", "unit": "nM"}, {"measurement": "IC50", "setting": "[4]", "result": "< 31.6", "unit": "nM"}, {"measurement": "viability, T/C", "setting": "second compound 0.00316 µM, first compound 0.0316 µM", "result": 3.83, "unit": "%"}, {"measurement": "viability, T/C", "setting": "second compound 0.00316 µM, first compound 0.1 µM", "result": 3.97, "unit": "%"}, {"measurement": "viability, T/C", "setting": "second compound 0.00316 µM, first compound 0.316 µM", "result": 4.72, "unit": "%"}, {"measurement": "viability, T/C", "setting": "second compound 0.00316 µM, first compound 1 µM", "result": 5.04, "unit": "%"}, {"measurement": "viability, T/C", "setting": "second compound 0.00316 µM, first compound 3.16 µM", "result": 6.7, "unit": "%"}, {"measurement": "viability, T/C", "setting": "second compound 0.00316 µM, first compound 10 µM", "result": 7.46, "unit": "%"}, {"measurement": "viability, T/C", "setting": "second compound 0.01 µM, first compound 0.0316 µM", "result": 3.55, "unit": "%"}, {"measurement": "viability, T/C", "setting": "second compound 0.01 µM, first compound 0.1 µM", "result": 5.26, "unit": "%"}, {"measurement": "viability, T/C", "setting": "second compound 0.01 µM, first compound 0.316 µM", "result": 5.77, "unit": "%"}, {"measurement": "viability, T/C", "setting": "second compound 0.01 µM, first compound 1 µM", "result": 5.45, "unit": "%"}, {"measurement": "viability, T/C", "setting": "second compound 0.01 µM, first compound 3.16 µM", "result": 4.97, "unit": "%"}, {"measurement": "viability, T/C", "setting": "second compound 0.01 µM, first compound 10 µM", "result": 8.21, "unit": "%"}, {"measurement": "viability, T/C", "setting": "[5]", "result": 4.29, "unit": "%"}, {"measurement": "viability, T/C", "setting": "[6]", "result": 4.99, "unit": "%"}, {"measurement": "viability, T/C", "setting": "[7]", "result": 5.82, "unit": "%"}, {"measurement": "viability, T/C", "setting": "[8]", "result": 4.83, "unit": "%"}, {"measurement": "viability, T/C", "setting": "[9]", "result": 5.52, "unit": "%"}, {"measurement": "viability, T/C", "setting": "[10]", "result": 6.14, "unit": "%"}, {"measurement": "viability, T/C", "setting": "[11]", "result": 4.07, "unit": "%"}, {"measurement": "viability, T/C", "setting": "[12]", "result": 4.89, "unit": "%"}, {"measurement": "viability, T/C", "setting": "[13]", "result": 5.53, "unit": "%"}, {"measurement": "viability, T/C", "setting": "[14]", "result": 6.37, "unit": "%"}, {"measurement": "viability, T/C", "setting": "[15]", "result": 3.49, "unit": "%"}, {"measurement": "viability, T/C", "setting": "[16]", "result": 6.77, "unit": "%"}, {"measurement": "viability, T/C", "setting": "[17]", "result": 3.97, "unit": "%"}, {"measurement": "viability, T/C", "setting": "[18]", "result": 3.89, "unit": "%"}, {"measurement": "viability, T/C", "setting": "[19]", "result": 3.73, "unit": "%"}, {"measurement": "viability, T/C", "setting": "[20]", "result": 5.43, "unit": "%"}, {"measurement": "viability, T/C", "setting": "[21]", "result": 5.26, "unit": "%"}, {"measurement": "viability, T/C", "setting": "[22]", "result": 7.59, "unit": "%"}, {"measurement": "viability, T/C", "setting": "[23]", "result": 4.07, "unit": "%"}, {"measurement": "viability, T/C", "setting": "[24]", "result": 3.8, "unit": "%"}, {"measurement": "viability, T/C", "setting": "[25]", "result": 4.24, "unit": "%"}, {"measurement": "viability, T/C", "setting": "[26]", "result": 3.62, "unit": "%"}, {"measurement": "viability, T/C", "setting": "[27]", "result": 4.03, "unit": "%"}, {"measurement": "viability, T/C", "setting": "[28]", "result": 7.53, "unit": "%"}]}, {"smiles": "CC(C)NCC(C(=O)N1CCN(c2ncnc3c2C(C)CC3O)CC1)c1ccc(Cl)cc1", "note": "(stereo not given) + C#Cc1c(F)ccc2cc(O)cc(-c3ncc4c(N5CC6CCC(C5)N6)nc(OCC56CCCN5CC(F)C6)nc4c3F)c12", "values": [{"measurement": "IC50", "setting": "[1]", "result": 1870, "unit": "nM"}, {"measurement": "IC50", "setting": "[2]", "result": 1720, "unit": "nM"}, {"measurement": "IC50", "setting": "[3]", "result": 1560, "unit": "nM"}, {"measurement": "IC50", "setting": "[4]", "result": 930, "unit": "nM"}, {"measurement": "IC50", "setting": "curve of first compound, second compound 3.16 µM", "result": 390, "unit": "nM"}, {"measurement": "IC50", "setting": "curve of first compound, second compound 10 µM", "result": 160, "unit": "nM"}, {"measurement": "viability, T/C", "setting": "[5]", "result": 99.3, "unit": "%"}, {"measurement": "viability, T/C", "setting": "[6]", "result": 99.2, "unit": "%"}, {"measurement": "viability, T/C", "setting": "[7]", "result": 90.4, "unit": "%"}, {"measurement": "viability, T/C", "setting": "[8]", "result": 71.6, "unit": "%"}, {"measurement": "viability, T/C", "setting": "[9]", "result": 32.1, "unit": "%"}, {"measurement": "viability, T/C", "setting": "[10]", "result": 13.8, "unit": "%"}, {"measurement": "viability, T/C", "setting": "[11]", "result": 106, "unit": "%"}, {"measurement": "viability, T/C", "setting": "[12]", "result": 99.1, "unit": "%"}, {"measurement": "viability, T/C", "setting": "[13]", "result": 94.3, "unit": "%"}, {"measurement": "viability, T/C", "setting": "[14]", "result": 69.9, "unit": "%"}, {"measurement": "viability, T/C", "setting": "[15]", "result": 28, "unit": "%"}, {"measurement": "viability, T/C", "setting": "[16]", "result": 13.5, "unit": "%"}, {"measurement": "viability, T/C", "setting": "[17]", "result": 103, "unit": "%"}, {"measurement": "viability, T/C", "setting": "[18]", "result": 95.1, "unit": "%"}, {"measurement": "viability, T/C", "setting": "[19]", "result": 86.9, "unit": "%"}, {"measurement": "viability, T/C", "setting": "[20]", "result": 69.2, "unit": "%"}, {"measurement": "viability, T/C", "setting": "[21]", "result": 21.4, "unit": "%"}, {"measurement": "viability, T/C", "setting": "[22]", "result": 13.7, "unit": "%"}, {"measurement": "viability, T/C", "setting": "[23]", "result": 100, "unit": "%"}, {"measurement": "viability, T/C", "setting": "[24]", "result": 94.6, "unit": "%"}, {"measurement": "viability, T/C", "setting": "[25]", "result": 79.2, "unit": "%"}, {"measurement": "viability, T/C", "setting": "[26]", "result": 48, "unit": "%"}, {"measurement": "viability, T/C", "setting": "[27]", "result": 21.2, "unit": "%"}, {"measurement": "viability, T/C", "setting": "[28]", "result": 10.3, "unit": "%"}, {"measurement": "viability, T/C", "setting": "second compound 3.16 µM, first compound 0.0316 µM", "result": 84.6, "unit": "%"}, {"measurement": "viability, T/C", "setting": "second compound 3.16 µM, first compound 0.1 µM", "result": 75, "unit": "%"}, {"measurement": "viability, T/C", "setting": "second compound 3.16 µM, first compound 0.316 µM", "result": 53.3, "unit": "%"}, {"measurement": "viability, T/C", "setting": "second compound 3.16 µM, first compound 1 µM", "result": 31.8, "unit": "%"}, {"measurement": "viability, T/C", "setting": "second compound 3.16 µM, first compound 3.16 µM", "result": 13, "unit": "%"}, {"measurement": "viability, T/C", "setting": "second compound 3.16 µM, first compound 10 µM", "result": 7.27, "unit": "%"}, {"measurement": "viability, T/C", "setting": "second compound 10 µM, first compound 0.0316 µM", "result": 62.8, "unit": "%"}, {"measurement": "viability, T/C", "setting": "second compound 10 µM, first compound 0.1 µM", "result": 55, "unit": "%"}, {"measurement": "viability, T/C", "setting": "second compound 10 µM, first compound 0.316 µM", "result": 42.3, "unit": "%"}, {"measurement": "viability, T/C", "setting": "second compound 10 µM, first compound 1 µM", "result": 20, "unit": "%"}, {"measurement": "viability, T/C", "setting": "second compound 10 µM, first compound 3.16 µM", "result": 10.1, "unit": "%"}, {"measurement": "viability, T/C", "setting": "second compound 10 µM, first compound 10 µM", "result": 4.52, "unit": "%"}]}, {"smiles": "C=CC(=O)N1CCN(c2nc(OCC3CCCN3C)nc3c(F)c(-c4nc(N)cc(C)c4C(F)(F)F)c(Cl)cc23)C(C)C1", "note": "(stereo not given)", "values": [{"measurement": "viability, T/C", "setting": "compound 0.00316 µM", "result": "89.6% [middle of 12 runs]"}, {"measurement": "viability, T/C", "setting": "compound 0.0316 µM", "result": "86.8% [middle of 12 runs]"}, {"measurement": "viability, T/C", "setting": "compound 0.316 µM", "result": "85.5% [middle of 12 runs]"}, {"measurement": "viability, T/C", "setting": "compound 1 µM", "result": "86% [middle of 12 runs]"}, {"measurement": "IC50", "setting": "compound alone, run of 09/09/2024", "result": "> 1000", "unit": "nM"}, {"measurement": "IC50", "setting": "curve of compound", "result": "> 1000", "unit": "nM"}]}]}
